Source: patent publication US12324805B2, “Cancer treatment” (LDN Pharma Limited, priority 2017, dated 2025)
Entries after “also recorded” stand apart in the source; their conditions may differ.

Legend:
MCF7 cells = assay: Two-stage sequential treatment of MCF7 cells, cell number and viability (trypan blue); format: cell-based; conditions: LDN (10 nM) or 6BN (10 μM) for 48 h, then cannabinoid (cannabidiol 10 μM) for 48 h, compared with other sequences
Experimental: Each treatment lasted four days and consisted of two days of treatment with the first agent (UN=control, LDN=Low Dose Naltrexone at 10 nM CBD=Cannabidiol, 6BN=6-β-naltrexol) before the second-named agent was introduced for a further two days.
Another illustrative and non-limiting experiment was carried out on cultures of MCF7 cells. In brief, the cultures were treated with LDN or 6BN for two days, after which a cannabinoid was administered for a further two days. Cell number and viability were assessed on day four. The sequence of the administration for each therapeutic agent was reversed and the experiment repeated.
In full, MCF7 cells were seeded into 6-well plates at a density of 1.5×10^4/well and left to adhere. Cells were then cultured with naltrexone (10 nM), 6-β-naltrexol (10 μM) or cannabidiol (10 μM). Drug-containing media was removed after 48 h, and cells were rinsed gently with drug-free medium. Fresh culture medium was then added to the cells supplemented with either naltrexone (10 nM), 6-β-naltrexol (10 μM) or cannabidiol (10 μM), as indicated in the graph. Cell number and viability were assessed a further 48 h later, with percentages of live and dead cells being discriminated by trypan blue dye exclusion. Data were then consolidated to compare the effect of sequence on overall effect.

CB2 = assay: Western blot of CB2 levels in MCF7 cells after drug treatment; format: cell-based; conditions: two days; for levels of CB2 relative to controls: LDN 10 nM, 6BN 1 μM or 10 μM, Western blot densitometry normalised to GAPDH, vs no-drug controls
Experimental: Levels of Bcl2-associated death promoter (BAD), p21 protein, the opioid receptors kappa 1 (OPRK1) and mu 1 (OPRM1), and the cannabinoid receptors CBR1 (CB1) and CBR2 (CB2) are visualised by Western blot (left) against GAPDH as a loading control, and quantified via density analysis relative to GAPDH (right).
One illustrative and non-limiting experiment was carried out on cultures of MCF7 cells. In brief, either LDN at 10 nM or 6BN at 1 μM or 10 μM was administered in vitro to a culture for two days, after which the expression levels of BAD, p21, opioid receptors kappa and mu, CB1, CB2, and GAPDH (as a loading control) were analysed via Western blot and subsequent quantification via density measurement of the bands.
In full, MCF7 cells were seeded into 6-well plates at a density of 1×10^5/well and left to adhere over-night. Naltrexone (10 nM) or 6-β-naltrexol (1 μM or 10 μM) were added to the cells before harvesting cells for western blot analysis. Primary probing was performed with specific antibodies generated against BAD, p21, OPRK1, […], CBR-1 and CBR-2. […] Anti-GAPDH was used as a loading control. All antibodies were used at a dilution of 1:1000, followed by the appropriate HRP conjugated secondary antibodies also at a dilution of 1:1000. Bands were visualised by the SuperSignal chemiluminescent detection system, and densitometry of band intensity was determined using Adobe Photoshop CS3, v10.0, and normalised to the loading control.

| SMILES | inhibition of cancer cell proliferation, effect of schedule (MCF7 cells) | rise in CB2 compared among the three treatments (CB2; 10 μM 6BN compared with 1 μM 6BN and 10 nM LDN) | levels of CB2 relative to controls (CB2) |
| --- | --- | --- | --- |
| Oc1ccc2c3c1OC1C(O)CC[C@@]4(O)[C@@H](C2)N(CC2CC2)CC[C@]314 (some centres unmarked) [6BN, N-cyclopropylmethyl-7,8-dihydro-14-hydroxynorisomorphine] | most effective; also recorded: greater effect | highest | significant increase |
| O=C1CC[C@@]2(O)[C@H]3Cc4ccc(O)c5c4[C@@]2(CCN3CC2CC2)[C@H]1O5 [LDN, 17-cyclopropylmethyl-4.5α-epoxy-3,14-dihydroxymorphinan-6-one] | most effective; also recorded: more effectively; also recorded: greater effect | – | significant increase; also recorded: increased significantly |
